This is an account of results in US11021424B2, “Redox-active therapeutics for treatment of mitochondrial diseases and other conditions and modulation of energy biomarkers” (PTC THERAPEUTICS, INC., priority 2005, dated 2021).

Read-outs that look alike come from different tables or passages of the source.

The subject of this experiment is FRDA fibroblasts. Nature of the experiment: Rescue of FRDA fibroblasts stressed by L-buthionine-(S,R)-sulfoximine (BSO), viability by Calcein AM fluorescence. The conditions noted are these: for EC50: BSO-stressed (1 mM) FRDA fibroblasts GM04078. The experiment is classed as cell-based, human. The protocol:
An initial screen was performed to identify compounds effective for the amelioration of redox disorders. Test samples, 4 reference compounds (idebenone, decylubiquinone, Trolox and α-tocopherol acetate), and solvent controls were tested for their ability to rescue FRDA fibroblasts stressed by addition of L-buthionine-(S,R)-sulfoximine (BSO), as described in Jauslin et al., Hum. Mol. Genet. 11(24):3055 (2002), Jauslin et al., FASEB J. 17:1972-4 (2003), and International Patent Application WO 2004/003565. […] This specific BSO-mediated cell death can be prevented by administration of antioxidants or molecules involved in the antioxidant pathway, such as α-tocopherol, short chain quinones, selenium, or small molecule glutathione peroxidase mimetics. However, antioxidants differ in their potency, i.e. the concentration at which they are able to rescue BSO-stressed FRDA fibroblasts. With this assay EC50 concentrations of the test compounds were determined and compared to known reference antioxidants.
MEM (a medium enriched in amino acids and vitamins, catalog no. 1-31F24-I) and Medium 199 (M199, catalog no. 1-21F224) with Earle's Balanced Salts, without phenol red, were purchased from Bioconcept. Fetal Calf Serum was obtained from PAA Laboratories. Basic fibroblast growth factor and epidermal growth factor were purchased from PeproTech. Penicillin-streptomycin-glutamine mix, L-buthionine (S,R)-sulfoximine, (+)-α-tocopherol acetate, decylubiquinone, and insulin from bovine pancreas were purchased from Sigma. Trolox (6-hydroxy-2,5,7,8-tetramethylchromane-2-carboxylic acid) was obtained from Fluka. Idebenone was obtained from Chemo Iberica. Calcein AM was purchased from Molecular Probes. Cell culture medium was made by combining 125 ml M199 EBS, 50 ml Fetal Calf Serum, 100 U/ml penicillin, 100 μg/ml streptomycin, 2 mM glutamine, 10 μg/ml insulin, 10 ng/ml EGF, and 10 ng/ml bFGF; MEM EBS was added to make the volume up to 500 ml. A 10 mM BSO solution was prepared by dissolving 444 mg BSO in 200 ml of medium with subsequent filter-sterilization. During the course of the experiments, this solution was stored at +4° C. The cells were obtained from the Coriell Cell Repositories (Camden, N.J.; repository number GM04078) and grown in 10 cm tissue culture plates. Every third day, they were split at a 1:3 ratio.
The test samples were supplied in 1.5 ml glass vials. The compounds were diluted with DMSO, ethanol or PBS to result in a 5 mM stock solution. Once dissolved, they were stored at −20° C. Reference antioxidants (idebenone, decylubiquinone, α-tocopherol acetate and trolox) were dissolved in DMSO.
Test samples were screened according to the following protocol: A culture with FRDA fibroblasts was started from a 1 ml vial with approximately 500,000 cells stored in liquid nitrogen. Cells were propagated in 10 cm cell culture dishes by splitting every third day in a ratio of 1:3 until nine plates were available. Once confluent, fibroblasts were harvested. For 54 micro titer plates (96 well-MTP) a total of 14.3 million cells (passage eight) were re-suspended in 480 ml medium, corresponding to 100 μl medium with 3,000 cells/well. The remaining cells were distributed in 10 cm cell culture plates (500,000 cells/plate) for propagation. The plates were incubated overnight at 37° C. in a atmosphere with 95% humidity and 5% CO2 to allow attachment of the cells to the culture plate.
MTP medium (243 μl) was added to a well of the microtiter plate. The test compounds were unfrozen, and 7.5 μl of a 5 mM stock solution was dissolved in the well containing 243 μl medium, resulting in a 150 μM master solution. Serial dilutions from the master solution were made. The period between the single dilution steps was kept as short as possible (generally less than 1 second).
Plates were kept overnight in the cell culture incubator. The next day, 10 μl of a 10 mM BSO solution were added to the wells, resulting in a 1 mM final BSO concentration. […]

The term EC50 denotes the concentration giving half of the maximal effect. `CC(=O)Oc1c(C)c(C)c2c(c1C)CC[C@@](C)(CCC[C@H](C)CCC[C@H](C)CCCC(C)C)O2` [α-tocopherol acetate, (+)-α-tocopherol acetate, reference compound]: the half-maximal effective concentration (EC50) reads like this: (average of three experiments, read-out: EC50 Average) 300 nM; (first of three experiments, read-out: EC50 Value 1) 400 nM; (second of three experiments, read-out: EC50 Value 2) 150 nM; (third of three experiments, read-out: EC50 Value 3) 350 nM.

For the compound `CC1=C(C)C(=O)C(CC[C@](C)(O)CCC[C@H](C)CCC[C@H](C)CCCC(C)C)=C(C)C1=O` [α-tocopherol quinone, 2-[(3R,7R,11R)-3-hydroxy-3,7,11,15-tetramethylhexadecyl]-3,5,6-trimethyl-2,5-cyclohexadiene-1,4-dione], the EC50 runs as follows: (Homo sapiens, average of three experiments, read-out: EC50 Average) 0.0014 nM; (Homo sapiens, first of three experiments, read-out: EC50 Value 1) 0.001 nM; (Homo sapiens, second of three experiments, read-out: EC50 Value 2) 0.003 nM. Besides, the “EC50 fold lower than alpha-D-tocopherol” value (human cell culture model of FRDA, relative to alpha-D-tocopherol) is reported as 10^4 fold. The “EC50 fold lower than idebenone” value (human cell culture models of FRDA, relative to idebenone) is recorded as 10^5 fold.
